This is an account of results in patent US9657064B2, “Cell penetrating peptides” (UNIVERSITE DE GENEVE, priority 2012, dated 2017).

Assay [1] deals with ovalbumin-specific CD8+ T cells. Briefly: Vaccination of mice with CPP-OVA fusion polypeptides, multimer staining of splenocytes (Example 3). It counts as in vivo. Conditions: 2 s.c. vaccinations at 14 days of interval, 20 μg fusion polypeptide + 100 μg anti-CD40, 50 μg poly-IC i.m., PBS control 0.18%. The method, then:
Mice were vaccinated twice sub-cutaneously at 14 days of interval with 20 μg of each CPPs-OVA fusion polypeptides and 100 μg anti-CD40, 50 μg poly-IC was injected intramuscularly 10 days after the boost, the mice were sacrificed and the splenocytes stained with a multimer and anti-CD8. Negative control with PBS (A); CPP1-OVA (B); CPP2-OVA (C).
To test the capacity of the polypeptides corresponding to constructs 1 and 2 to stimulate antigen-specific CD8^+ T cells in more stringent conditions, they were tested in vivo in a vaccination protocol (FIG. 2). In order to elicit an in vivo response, the polypeptide vaccine must be taken up by naturally present antigen presenting cells in the injected animal, and stimulation of polyclonal T cells must be highly efficient if ovalbumin-specific T cells are to be detected ex vivo. The read-out for these experiments was flow cytometry of splenocytes, using MHC-peptide multimers to detect ovalbumin-specific CD8^+ T cells.

The subject of assay [2] is ovalbumin CD8+ epitope specific immune response. The experiment in a line: In vivo vaccination of mice with different CPP-OVA fusion polypeptides, Pentamer staining in blood (Example 5). Conditions: for Fold increase in proliferation compared to CPP14: 10 nmol s.c. twice at 14 days of interval, with anti-CD40 and poly-IC, relative to CPP14-OVA reference. As for the experimental part:
The experiment was performed as described in Example 3.
Four to eight mice per group were vaccinated twice subcutaneously at 14 days of interval with 10 nmol of fusion polypeptides comprising one of the CPPs indicated in Table 2 fused to the ovalbumin CD8^+ epitope (SEQ ID NO: 3) flanked by the spacers of SEQ ID NO: 11 and SEQ ID NO: 12 at the N-terminal and C-terminal part of the CD8^+ epitope, respectively. Each CPP-OVA fusion polypeptide was injected in PBS with 100 μg anti-CD40. 50 μg poly-IC was injected intramuscularly 7 days after the second vaccination. Immune response was monitored in the blood with a Pentamer staining followed by flow cytometry analysis.
The results are presented in Table 3 as fold increase relative to a CPP-OVA fusion polypeptide of reference comprising CPP14 of SEQ ID NO: 22.

For assay [3], the system named is human astrocytoma cells U251. The experiment in a line: In vitro transduction of fluorescein-labeled CPP-OVA fusion polypeptides, flow cytometry. It counts as cell-based. Conditions: 0.9 μM, 2 h at 37° C., ratio of mean fluorescence index between cells alone and loaded cells. As for the experimental part:
(§1) Transduction into cells was monitored using different CPP-OVA fusion polypeptides comprising CPP1, CPP2, CPP8, or CPP10. Each of these CPPs fused with the immunodominant CD8^+ T cell epitope from ovalbumin were chemically synthesized and labeled with fluorescein. 5.10^5 cells were incubated for 2 h at 37° C. with 0.9 μM of the different fusion polypeptides. The cells tested were human lymphoid cells K562, murine lymphoid cells EL4, human astrocytoma cells U251 and murine astrocytoma cells GL261. The cells were washed in an acid buffer to remove all the membrane bound peptide and stained for viability with Live-Dead Yellow. Analysis was performed by flow cytometry. The index of fluorescence indicates the level of fluorescence above the natural auto-fluorescence of the cells. It is the ratio of the mean fluorescence index measured by flow cytometry between the cells alone and the cells loaded with CPP-OVA fusion polypeptides.
On the technique in general: A flow cytometer gives signals particle by particle.

Assay [4] deals with human lymphoid cells K562. The description is as above. It counts as cell-based. The note with it: 0.9 μM, 2 h at 37° C., ratio of mean fluorescence index between cells alone and loaded cells. As for the experimental part:
as §1

For assay [5], the system named is murine astrocytoma cells GL261. Described as above. It counts as cell-based. Conditions: 0.9 μM, 2 h at 37° C., ratio of mean fluorescence index between cells alone and loaded cells. The method, then: as §1
Assay [6] deals with murine lymphoid cells EL4. The description is as above. It counts as cell-based. The note with it: 0.9 μM, 2 h at 37° C., ratio of mean fluorescence index between cells alone and loaded cells. The method, then:
as §1

As for “KRYKNRVASRKSRAKFKQLLQHYREVAAAKEQLESIINFEKLTEWT [construct 2]”, in assay [1], the “CD8+ T cells multimer positive (ovalbumin-specific CD8+ T cells)” value is reported as “over 1%”.

As for KRYKNRVASRKSRAKFK (CCP1) [CPP1], the “Fold increase in proliferation compared to CPP14” value (from here on “Fold increase in proliferation”) in assay [2] was found to be 1.74. Further, the index of fluorescence came to 4.5 in assay [3], 3 in assay [4], 2.4 in assay [5] and 4.8 in assay [6].

For the sequence “KRYKNRVA [CPP7, 8-amino acid-long fragment of Zebra, positions 178 to 185; negative control, tested as CPP-OVA fusion, reference compound]”, in assay [2] (10 nmol s.c. twice), the “immunogenic potential compared to the reference fusion polypeptide comprising CPP14” value is on record as “lower immunogenic potential”. Also, the “Fold increase in proliferation” value in assay [2] worked out at 0.65.

Turning to QHYREVAAAKSSEND [CPP8], the “Fold increase in proliferation” value in assay [2] was 1.28. Further, the index of fluorescence is recorded as 2 in assay [3], 1.9 in assay [4], 1.4 in assay [5] and 2.5 in assay [6].

For the sequence REVAAAKSSENDRLRLLLK [CPP10], in assay [2], the “Fold increase in proliferation” value came out at 2.17. For the same sequence, the index of fluorescence was found to be 4 in assay [3], 3.7 in assay [4], 1.9 in assay [5] and 4 in assay [6].

Turning to KRYKNRVASRKSRAKFKQLLQHYREVAAAK [CPP2], the “Fold increase in proliferation” value in assay [2] is 1.41. Besides, the index of fluorescence came to 25.1 in assay [3], 15 in assay [4], 20.8 in assay [5] and 57.7 in assay [6].
